Results: patent EP0326331B1, “Substituted quinolines and cinnolines” (Dow AgroSciences LLC, priority 1988, dated 1989)
Where two headings read alike, the source gives them in different places.

How the values were obtained:
Format in all cases: in vivo
[1] = system: Erysiphe graminis tritici (powdery mildew); experiment: Test 1 greenhouse foliar spray screen, powdery mildew on wheat; conditions: for pest or weed control at 400 ppm: Blumeria graminis, foliar, read-out: POWD MDEW
[2] = system: Pyricularia oryzae (rice blast); experiment: whole plant or invertebrate; conditions: for pest or weed control at 400 ppm: Pyricularia oryzae, foliar, read-out: RICE BLAST, Test 1, foliar spray on rice
[3] = system: Puccinia recondita tritici (leaf rust); experiment: Test 1 greenhouse foliar spray screen, leaf rust on wheat; conditions: for pest or weed control at 400 ppm: Puccinia recondita, foliar
[4] = system: Botrytis cinerea (gray mold); experiment: Test 1 greenhouse foliar spray screen, gray mold on grape berries; conditions: for pest or weed control at 400 ppm: Botrytis cinerea, foliar
[5] = system: Pseudoperonospora cubensis (downy mildew); experiment: Test 1 greenhouse foliar spray screen, downy mildew on squash; conditions: for pest or weed control at 400 ppm: Pseudoperonospora cubensis, foliar, read-out: DOWN MDEW
[6] = system: southern armyworm (Spodopetra eridania Cramer); experiment: Mite/insect screen, SAW; conditions: percent mortality; for mortality at 200 ppm / mortality at 400 ppm: Spodoptera eridania, read-out: SAW RESULTS %
How it was run: (§1)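 Percent mortality was scored after standard exposure periods, following spraying of leaves to runoff (both surfaces, 10 psi, 1 h drying) with water dilutions of compound in emulsifier-containing acetone/alcohol (50:50). Armyworms received excised treated leaves in dishes.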

[7] = system: Twospotted spider mites (Tetranychus urticae Koch); experiment: Mite/insect screen, SM; conditions: for mortality at 200 ppm / mortality at 400 ppm: Tetranychus urticae, read-out: SM RESULTS %; for mortality at 200 ppm / mortality at 400 ppm / SM RESULTS %: percent mortality
How it was run: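 Read-out: percent mortality after standard exposure periods. Test solutions were water dilutions of compound dissolved in acetone/alcohol (50:50) with emulsifier blends; leaves were sprayed to runoff on both surfaces and air-dried for one hour before exposure.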

[8] = system: melon aphids (Aphis gossypii Glover); experiment: Mite/insect screen, MA; conditions: percent mortality; for mortality at 200 ppm / mortality at 400 ppm: Aphis gossypii, read-out: MA RESULTS %
How it was run: as §1

corn rootworm = experiment: Mite/insect screen, CRW; conditions: percent mortality; for mortality at 12 ppm / mortality at 24 ppm: read-out: CRW RESULTS %
How it was run: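 Corn rootworm mortality (%) was evaluated following standard exposure times. Test material was emulsified by dissolution in acetone/alcohol (1:1) containing sulfonate/nonionic emulsifier blends TOXIMUL R (23 g/L) and TOXIMUL S (13 g/L), and water-diluted to the indicated doses.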

[9] = disease control rating, foliar spray on wheat, 400 ppm (+++ at 100 ppm)
[10] = disease control rating, foliar spray on rice, 400 ppm (+++ at 100 ppm)
[11] = disease control rating, spray on grape berries, 400 ppm (+++ at 100 ppm)
[12] = disease control rating, foliar spray on squash, 400 ppm (+++ at 100 ppm)
[13] = Test 1, foliar spray on wheat, disease control rating at 400 ppm / 100 ppm
[14] = Test 1, spray on grape berries, disease control rating at 400 ppm / 100 ppm
[15] = Test 1, foliar spray on squash, disease control rating at 400 ppm / 100 ppm
[16] = rate 200 ppm, foliar spray on squash
[17] = rate 400 ppm, foliar spray on squash
[18] = disease control rating at 400 ppm / 100 ppm
[19] = foliar, rate 200 ppm, foliar spray on squash
[20] = foliar, rate 400 ppm, foliar spray on squash

SMILES	POWD MDEW [1, 9]	RICE BLAST [2, 10]	LEAF RUST [3, 9]	GRAY MOLD [4, 11]	DOWN MDEW [5, 12]	mortality at 400 ppm ([6]; SAW, SM & MA RATE 400 PPM)	mortality at 400 ppm ([7]; SAW, SM & MA RATE 400 PPM)	mortality at 400 ppm ([8]; SAW, SM & MA RATE 400 PPM)	mortality at 24 ppm (corn rootworm; CRW RATE 24.00 PPM)	pest or weed control at 400 ppm [1, 13]	pest or weed control at 400 ppm [2, 18]	pest or weed control at 400 ppm [3, 13]	pest or weed control at 400 ppm [4, 14]	pest or weed control at 400 ppm [5, 15]	mortality at 200 ppm [6, 19]	mortality at 400 ppm [6, 20]	mortality at 200 ppm [7, 19]	mortality at 400 ppm [7, 20]	mortality at 200 ppm [8, 19]	mortality at 400 ppm [8, 20]	further results
Cc1cccc2c(NCCc3ccc(Cl)cc3)ccnc12 [Example 61, 8-methyl-N-[2-(4-chlorophenyl)ethyl]-4-quinolinamine]	- (0-19% control at 400 ppm)	++ (90-100% control at 400 ppm)	++ (90-100% control at 400 ppm)	- (0-19% control at 400 ppm)	+++ (90-100% control at 100 ppm)	0%	0%	0%	0%												mortality at 200 ppm ([6]; SAW, SM & MA RATE 200 PPM): 0%; mortality at 200 ppm ([7]; SAW, SM & MA RATE 200 PPM): 0%; mortality at 200 ppm ([8]; SAW, SM & MA RATE 200 PPM): 0%; mortality at 12 ppm (corn rootworm; CRW RATE 12.00 PPM): 0%
Fc1cccc2c(NCCc3ccc(Oc4ccccc4)cc3)ccnc12 [Example 90, 8-fluoro-N-[2-(4-phenoxyphenyl)ethyl]-4-quinolinamine]	- (0-19% control at 400 ppm)	+++ (90-100% control at 100 ppm)	+++ (90-100% control at 100 ppm)	- (0-19% control at 400 ppm)	+++ (90-100% control at 100 ppm)	0%	0%	0%	0%												mortality at 200 ppm ([6]; SAW, SM & MA RATE 200 PPM): 100%; mortality at 200 ppm ([7]; SAW, SM & MA RATE 200 PPM): 80%; activity as miticides ([7]; summary statement in the description): particularly excellent activity; mortality at 200 ppm ([8]; SAW, SM & MA RATE 200 PPM): 80%; mortality at 12 ppm (corn rootworm; CRW RATE 12.00 PPM): 0%
Fc1cccc2c(OCCc3ccc(-c4ccccc4)cc3)ccnc12 [Example 263, 8-fluoro-4-[2-(1,1'-biphenyl)-4-yl-ethoxy]quinoline]																					POWD MDEW [1, 13]: + (20-89% control at 400 ppm); RICE BLAST ([2]; Test 1, foliar spray on rice, disease control rating at 400 ppm / 100 ppm): + (20-89% control at 400 ppm); LEAF RUST [3, 13]: + (20-89% control at 400 ppm); GRAY MOLD [4, 14]: - (0-19% control at 400 ppm); DOWN MDEW [5, 15]: - (0-19% control at 400 ppm); SAW RESULTS % [6, 16]: 0%; SAW RESULTS % [6, 17]: 0%; SM RESULTS % [7, 16]: 0%; SM RESULTS % [7, 17]: 0%; MA RESULTS % [8, 16]: 0%; MA RESULTS % [8, 17]: 0%; CRW RESULTS % (corn rootworm; CRW rate 12.00 ppm): 0%; CRW RESULTS % (corn rootworm; CRW rate 24.00 ppm): 0%
Fc1cccc2c(OCCCc3cccc(C(F)(F)F)c3)ccnc12 [Example 294, 8-fluoro-4-[3-[3-(trifluoromethyl)phenyl]propoxy]quinoline]										0 to 19%	0 to 19%	0 to 19%	0 to 19%	0 to 19%	0%	0%	0%	0%	0%	0%	mortality at 12 ppm (corn rootworm; CRW rate 12.00 ppm): 0%; mortality at 24 ppm (corn rootworm; CRW rate 24.00 ppm): 0%
CCOc1ccc2nc(C)cc(OCCCOCc3ccccc3)c2c1 [Example 279, 6-ethoxy-2-methyl-4-[3-(phenylmethoxy)propoxy]quinoline]										0 to 19%	90 to 100%	90 to 100%	0 to 19%	90 to 100%	0%	0%	0%	0%	0%	80%	mortality at 12 ppm (corn rootworm; CRW rate 12.00 ppm): 0%; mortality at 24 ppm (corn rootworm; CRW rate 24.00 ppm): 0%
Clc1ccc2c(NCCCc3ccc(-c4ccccc4)cc3)ccnc2c1 [Example 134, 7-chloro-N-[3-(1,1'-biphenyl)-4-ylpropyl]-4-quinolinamine]	+ (20-89% control at 400 ppm)	++ (90-100% control at 400 ppm)	+ (20-89% control at 400 ppm)	- (0-19% control at 400 ppm)	+++ (90-100% control at 100 ppm)	0%	0%	0%	0%												
FC(F)(F)c1ccc2c(NCCc3ccc(Cl)cc3)ccnc2c1 [Example 47, N-[2-(4-chlorophenyl)ethyl]-7-(trifluoromethyl)-4-quinolinamine]	+ (20-89% control at 400 ppm)	- (0-19% control at 400 ppm)	+ (20-89% control at 400 ppm)	- (0-19% control at 400 ppm)	+ (20-89% control at 400 ppm)	0%	0%	0%	0%												mortality at 200 ppm ([6]; SAW, SM & MA RATE 200 PPM): 0%; mortality at 200 ppm ([7]; SAW, SM & MA RATE 200 PPM): 0%; mortality at 200 ppm ([8]; SAW, SM & MA RATE 200 PPM): 0%; mortality at 12 ppm (corn rootworm; CRW RATE 12.00 PPM): 0%
Cc1ccc(C)c2c(NCCC3=CCCCC3)ccnc12 [Example 142, N-[2-(1-cyclohexenyl)ethyl]-5,8-dimethyl-4-quinolinamine]	- (0-19% control at 400 ppm)	++ (90-100% control at 400 ppm)	++ (90-100% control at 400 ppm)	- (0-19% control at 400 ppm)	+++ (90-100% control at 100 ppm)	0%	0%	0%	0%												mortality at 200 ppm ([6]; SAW, SM & MA RATE 200 PPM): 0%; mortality at 200 ppm ([7]; SAW, SM & MA RATE 200 PPM): 0%; mortality at 200 ppm ([8]; SAW, SM & MA RATE 200 PPM): 0%; mortality at 12 ppm (corn rootworm; CRW RATE 12.00 PPM): 0%
CC(C)(C)c1ccc(CCCNc2ccnc3c(F)cccc23)cc1 [Example 271, N-[3-[4-(t-butyl)phenyl]propyl]-8-fluoro-4-quinolinamine]										0 to 19%	90 to 100%	20 to 89%	0 to 19%	90 to 100%	0%	0%	0%	0%	0%	0%	mortality at 12 ppm (corn rootworm; CRW rate 12.00 ppm): 0%; mortality at 24 ppm (corn rootworm; CRW rate 24.00 ppm): 0%
OCCc1ccc(CCOc2ccnc3c(F)cccc23)cc1 [Example 265, 8-fluoro-4-[2-[4-(2-hydroxyethyl)phenyl]ethoxy]quinoline]										0 to 19%	90 to 100%	90 to 100%	0 to 19%	0 to 19%	0%	0%	0%	0%	0%	0%	mortality at 12 ppm (corn rootworm; CRW rate 12.00 ppm): 0%; mortality at 24 ppm (corn rootworm; CRW rate 24.00 ppm): 0%
Cc1cc(OCCc2ccc(C(C)(C)C)cc2)c2cc(Cl)ccc2n1 [Example 286, 6-chloro-2-methyl-4-[2-[4-(t-butyl)phenyl]ethoxy]quinoline]										20 to 89%	0 to 19%	20 to 89%	0 to 19%	0 to 19%	0%	0%	0%	0%	0%	0%	mortality at 12 ppm (corn rootworm; CRW rate 12.00 ppm): 0%; mortality at 24 ppm (corn rootworm; CRW rate 24.00 ppm): 0%
